{
  "source": "ChEMBL document CHEMBL4359822",
  "about": "“Design, synthesis of 4,5-diazafluorene derivatives and their anticancer activity via targeting telomeric DNA G-quadruplex” (Eur J Med Chem, 2019)",
  "key": {"A549 [1]": {"system": "A549", "test": "Inhibition of cell migration in human A549 cells at 0.1 uM incubated for 48 hrs by wound healing assay relative to control", "assay_type": "functional", "conditions": "A549, 48 h"}, "AGS [2]": {"system": "AGS", "test": "Antiproliferative activity against human AGS cells at 10 uM incubated for 36 hrs by CCK8 assay", "assay_type": "functional, cell-based"}, "AGS [3]": {"system": "AGS", "test": "Antiproliferative activity against human AGS cells incubated for 36 hrs by CCK8 assay", "assay_type": "functional, cell-based"}, "A549 [4]": {"system": "A549", "test": "Antiproliferative activity against human A549 cells incubated for 36 hrs by CCK8 assay", "assay_type": "functional, cell-based", "conditions": "A549, 36 h"}, "[5]": {"test": "Binding affinity to Tel-26nt G-rich DNA (unknown origin) assessed as change in melting temperature at 2 uM by UV-vis spectrophotometry (reference value: 38.33 +/- 0.07 degreeC)"}, "MCF7 [6]": {"system": "MCF7", "test": "Inhibition of cell migration in human MCF7 cells at 0.1 uM incubated for 48 hrs by wound healing assay relative to control", "assay_type": "functional", "conditions": "MCF7, 48 h"}, "AGS [7]": {"system": "AGS", "test": "Inhibition of cell migration in human AGS cells at 0.1 uM incubated for 48 hrs by wound healing assay relative to control", "assay_type": "functional"}, "[8]": {"test": "Selectivity index, ratio of IC50 for human MRC5 cells to IC50 for human MCF7 cells", "assay_type": "toxicity", "conditions": "MRC5 cells versus MCF7 cells, read-out: Ratio IC50"}, "[9]": {"test": "Binding affinity to Tel-26nt G-rich DNA (unknown origin) at => 3 uM incubated for 24 hrs by EMSA"}, "[10]": {"test": "Binding affinity to Tel-26nt G-rich DNA (unknown origin) assessed as change in melting temperature at 4 uM by UV-vis spectrophotometry (reference value: 38.33 +/- 0.07 degreeC)"}, "MCF7 [11]": {"system": "MCF7", "test": "Inhibition of cell migration in human MCF7 cells at 0.2 uM incubated for 48 hrs by wound healing assay relative to control", "assay_type": "functional", "conditions": "MCF7, 48 h"}, "[12]": {"test": "Binding affinity to Tel-26nt G-rich DNA (unknown origin) assessed as change in melting temperature by UV-vis spectrophotometry"}, "MCF7 [13]": {"system": "MCF7", "test": "Antiproliferative activity against human MCF7 cells incubated for 36 hrs by CCK8 assay", "assay_type": "functional, cell-based", "conditions": "MCF7, 36 h"}, "AGS [14]": {"system": "AGS", "test": "Inhibition of cell migration in human AGS cells at 0.2 uM incubated for 48 hrs by wound healing assay relative to control", "assay_type": "functional"}, "HepG2 [15]": {"system": "HepG2", "test": "Inhibition of cell migration in human HepG2 cells at 0.1 uM incubated for 48 hrs by wound healing assay relative to control", "assay_type": "functional", "conditions": "HepG2, 48 h"}, "[16]": {"test": "Selectivity index, ratio of IC50 for human MRC5 cells to IC50 for human A549 cells", "assay_type": "toxicity", "conditions": "MRC5 cells versus A549 cells, read-out: Ratio IC50"}, "HepG2 [17]": {"system": "HepG2", "test": "Inhibition of cell migration in human HepG2 cells at 0.4 uM incubated for 48 hrs by wound healing assay relative to control", "assay_type": "functional", "conditions": "HepG2, 48 h"}, "[18]": {"test": "Selectivity index, ratio of IC50 for human MRC5 cells to IC50 for human HEPG2 cells"}, "A549 [19]": {"system": "A549", "test": "Inhibition of cell migration in human A549 cells at 0.2 uM incubated for 48 hrs by wound healing assay relative to control", "assay_type": "functional", "conditions": "A549, 48 h"}, "MRC5": {"system": "MRC5", "test": "Antiproliferative activity against human MRC5 cells incubated for 36 hrs by CCK8 assay", "assay_type": "cell-based", "conditions": "MRC5, 36 h"}, "[20]": {"test": "Binding affinity to Tel-26nt G-rich DNA (unknown origin) assessed as change in melting temperature at 8 uM by UV-vis spectrophotometry (reference value: 38.33 +/- 0.07 degreeC)"}, "HepG2 [21]": {"system": "HepG2", "test": "Inhibition of cell migration in human HepG2 cells at 0.2 uM incubated for 48 hrs by wound healing assay relative to control", "assay_type": "functional", "conditions": "HepG2, 48 h"}, "[22]": {"target": "Telomerase reverse transcriptase (Homo sapiens) (UniProt O14746)", "sequence (O14746 whole entry)": "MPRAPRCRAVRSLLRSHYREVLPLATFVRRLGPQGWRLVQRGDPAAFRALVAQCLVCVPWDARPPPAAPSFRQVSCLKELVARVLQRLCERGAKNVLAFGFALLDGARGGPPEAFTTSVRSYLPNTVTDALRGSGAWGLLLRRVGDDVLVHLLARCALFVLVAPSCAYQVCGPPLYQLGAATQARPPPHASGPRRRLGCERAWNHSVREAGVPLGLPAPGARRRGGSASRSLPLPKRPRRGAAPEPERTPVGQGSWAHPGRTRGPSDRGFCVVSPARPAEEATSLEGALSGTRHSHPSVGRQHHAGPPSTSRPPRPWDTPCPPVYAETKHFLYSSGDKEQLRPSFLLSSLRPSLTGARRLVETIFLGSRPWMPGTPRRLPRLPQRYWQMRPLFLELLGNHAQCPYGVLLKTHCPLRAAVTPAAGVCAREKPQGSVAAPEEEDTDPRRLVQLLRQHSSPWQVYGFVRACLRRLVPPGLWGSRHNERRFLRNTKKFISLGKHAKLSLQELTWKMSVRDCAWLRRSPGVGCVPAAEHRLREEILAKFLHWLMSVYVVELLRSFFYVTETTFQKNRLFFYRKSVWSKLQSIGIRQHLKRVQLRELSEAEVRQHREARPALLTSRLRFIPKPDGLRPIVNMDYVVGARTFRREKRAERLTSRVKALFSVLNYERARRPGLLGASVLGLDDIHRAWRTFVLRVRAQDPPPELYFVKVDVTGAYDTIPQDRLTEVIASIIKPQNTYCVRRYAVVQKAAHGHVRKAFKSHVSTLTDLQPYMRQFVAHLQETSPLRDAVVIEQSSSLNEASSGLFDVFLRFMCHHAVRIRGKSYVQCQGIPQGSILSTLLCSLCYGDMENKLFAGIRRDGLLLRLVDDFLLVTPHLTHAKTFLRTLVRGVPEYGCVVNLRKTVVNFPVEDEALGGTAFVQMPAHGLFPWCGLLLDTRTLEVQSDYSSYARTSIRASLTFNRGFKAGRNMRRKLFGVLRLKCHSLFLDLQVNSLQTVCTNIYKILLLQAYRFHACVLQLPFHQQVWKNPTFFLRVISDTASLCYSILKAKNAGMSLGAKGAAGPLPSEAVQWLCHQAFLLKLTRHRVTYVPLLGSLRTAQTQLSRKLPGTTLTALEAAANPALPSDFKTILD", "test": "Inhibition of telomerase activity in human A549 cells at 2 to 8 uM by TRAP assay", "assay_type": "cell-based"}, "HepG2 [23]": {"system": "HepG2", "test": "Antiproliferative activity against human HepG2 cells at 10 uM incubated for 36 hrs by CCK8 assay", "assay_type": "functional, cell-based"}, "[24]": {"test": "Binding affinity to Tel-26nt G-rich DNA (unknown origin) incubated for 24 hrs by EMSA"}, "HepG2 [25]": {"system": "HepG2", "test": "Antiproliferative activity against human HepG2 cells incubated for 36 hrs by CCK8 assay", "assay_type": "functional, cell-based", "conditions": "HepG2, 36 h"}, "AGS [26]": {"system": "AGS", "test": "Inhibition of cell migration in human AGS cells at 0.4 uM incubated for 48 hrs by wound healing assay relative to control", "assay_type": "functional"}, "MCF7 [27]": {"system": "MCF7", "test": "Antiproliferative activity against human MCF7 cells at 10 uM incubated for 36 hrs by CCK8 assay", "assay_type": "functional, cell-based"}, "[28]": {"test": "Selectivity index, ratio of IC50 for human MRC5 cells to IC50 for human AGS cells", "assay_type": "toxicity", "conditions": "MRC5 cells versus AGS cells, read-out: Ratio IC50"}, "A549 [29]": {"system": "A549", "test": "Antiproliferative activity against human A549 cells at 10 uM incubated for 36 hrs by CCK8 assay", "assay_type": "functional, cell-based"}, "A549 [30]": {"system": "A549", "test": "Inhibition of cell migration in human A549 cells at 0.4 uM incubated for 48 hrs by wound healing assay relative to control", "assay_type": "functional", "conditions": "A549, 48 h"}, "MCF7 [31]": {"system": "MCF7", "test": "Inhibition of cell migration in human MCF7 cells at 0.4 uM incubated for 48 hrs by wound healing assay relative to control", "assay_type": "functional", "conditions": "MCF7, 48 h"}, "[32]": {"test": "Binding affinity to Tel-26nt G-rich DNA (unknown origin) at 0.25 :1 to 6 : 1 ratio of test compound to DNA measured after each titration for 15 mins during 24 hrs incubation by circular dichroism analysis"}, "[33]": {"test": "Binding affinity to Tel26nt double stranded DNA (unknown origin) at 4 to 16 uM measured after each titration for 15 mins during 24 hrs incubation by circular dichroism analysis"}, "[34]": {"test": "Binding affinity to Tel-26nt G-rich DNA (unknown origin) at 4 to 16 uM measured after each titration for 15 mins during 24 hrs incubation by circular dichroism analysis"}, "[35]": {"test": "Binding affinity to Tel-26nt mutated-single-stranded DNA (unknown origin) at 4 to 16 uM measured after each titration for 15 mins during 24 hrs incubation by circular dichroism analysis"}},
  "note": "Activity calls are given as the source filed them. The rule behind the calls is not given here.",
  "data": [
    {"compound": "CN(C)CCCn1cc(C=C2c3cccnc3-c3ncccc32)c(-c2ccc(F)cc2)n1", "values": [
      {"measurement": "inhibition at 0.1 µM", "setting": "A549 [1]", "result": 18.3, "unit": "%"},
      {"measurement": "growth inhibition (GI)", "setting": "AGS [2]", "result": "Active"},
      {"measurement": "IC50", "setting": "AGS [3]", "result": 2.93, "unit": "µM"},
      {"measurement": "IC50", "setting": "A549 [4]", "result": 3.44, "unit": "µM"},
      {"measurement": "Tm", "setting": "[5]", "result": 44, "unit": "°C"},
      {"measurement": "inhibition at 0.1 µM", "setting": "MCF7 [6]", "result": 24.9, "unit": "%"},
      {"measurement": "inhibition at 0.1 µM", "setting": "AGS [7]", "result": 44.5, "unit": "%"},
      {"measurement": "selectivity ratio", "setting": "[8]", "result": 0.88},
      {"measurement": "Activity", "setting": "[9]", "result": "Active"},
      {"measurement": "Tm", "setting": "[10]", "result": 44, "unit": "°C"},
      {"measurement": "inhibition at 0.2 µM", "setting": "MCF7 [11]", "result": 45.7, "unit": "%"},
      {"measurement": "deltaTm", "setting": "[12]", "result": "Dose-dependent effect"},
      {"measurement": "IC50", "setting": "MCF7 [13]", "result": 6.7, "unit": "µM"},
      {"measurement": "inhibition at 0.2 µM", "setting": "AGS [14]", "result": 67.8, "unit": "%"},
      {"measurement": "inhibition at 0.1 µM", "setting": "HepG2 [15]", "result": 22.4, "unit": "%"},
      {"measurement": "selectivity ratio", "setting": "[16]", "result": 1.72},
      {"measurement": "inhibition at 0.4 µM", "setting": "HepG2 [17]", "result": 69.9, "unit": "%"},
      {"measurement": "Ratio IC50", "setting": "[18]", "result": 1.79},
      {"measurement": "inhibition at 0.2 µM", "setting": "A549 [19]", "result": 47.9, "unit": "%"},
      {"measurement": "IC50", "setting": "MRC5", "result": 5.93, "unit": "µM"},
      {"measurement": "Tm", "setting": "[20]", "result": 62.7, "unit": "°C"},
      {"measurement": "inhibition at 0.2 µM", "setting": "HepG2 [21]", "result": 53.7, "unit": "%"},
      {"measurement": "inhibition", "setting": "[22]", "result": "Active"},
      {"measurement": "growth inhibition (GI)", "setting": "HepG2 [23]", "result": "Active"},
      {"measurement": "Activity", "setting": "[24]", "result": "Dose-dependent effect"},
      {"measurement": "IC50", "setting": "HepG2 [25]", "result": 3.32, "unit": "µM"},
      {"measurement": "inhibition at 0.4 µM", "setting": "AGS [26]", "result": 81.6, "unit": "%"},
      {"measurement": "growth inhibition (GI)", "setting": "MCF7 [27]", "result": "Active"},
      {"measurement": "selectivity ratio", "setting": "[28]", "result": 2.02},
      {"measurement": "growth inhibition (GI)", "setting": "A549 [29]", "result": "Active"},
      {"measurement": "inhibition at 0.4 µM", "setting": "A549 [30]", "result": 74.5, "unit": "%"},
      {"measurement": "inhibition at 0.4 µM", "setting": "MCF7 [31]", "result": 63.9, "unit": "%"}
    ]},
    {"compound": "O=C1C(=C2c3cccnc3-c3ncccc32)SC(=S)N1Cc1nnc(-c2ccc(Br)cc2)o1", "values": [
      {"measurement": "growth inhibition (GI)", "setting": "AGS [2]", "result": "Active"},
      {"measurement": "Tm", "setting": "[5]", "result": 43.1, "unit": "°C"},
      {"measurement": "Activity", "setting": "[32]", "result": "Active"},
      {"measurement": "Activity", "setting": "[9]", "result": "inactive"},
      {"measurement": "Tm", "setting": "[10]", "result": 56.1, "unit": "°C"},
      {"measurement": "deltaTm", "setting": "[12]", "result": "Dose-dependent effect"},
      {"measurement": "Tm", "setting": "[20]", "result": 47, "unit": "°C"},
      {"measurement": "Activity", "setting": "[33]", "result": "inactive"},
      {"measurement": "growth inhibition (GI)", "setting": "HepG2 [23]", "result": "Active"},
      {"measurement": "Activity", "setting": "[24]", "result": "Dose-dependent effect"},
      {"measurement": "growth inhibition (GI)", "setting": "MCF7 [27]", "result": "Active"},
      {"measurement": "Activity", "setting": "[34]", "result": "Active"},
      {"measurement": "Activity", "setting": "[35]", "result": "inactive"},
      {"measurement": "growth inhibition (GI)", "setting": "A549 [29]", "result": "Active"}
    ]}
  ]
}
